Earlier results on 4 compounds are cited in patent US20210308040A1, “KETAMINE ORAL TRANSMUCOSAL DELIVERY SYSTEM” (GUANGZHOU DAZHOU BIOMEDICINE LTD., priority 2018, published 2021).

Structures are written as SMILES.

The conditions of series [1]: 33 CRPS patients; about 23 mg/hr for about 4.7 days.
For series [2] the following is noted: in vivo.
Assay in series [3]: not given
The source holds these as a separate data set.

The conditions of series [4]: ketamine 0.3 mg/kg vs morphine 0.1 mg/kg, intravenous push.
Series [5] concerns NMDAR. The note with it: rodent species.
Assay in series [6]: not given
The source holds these as a separate data set.

Series [7] concerns NMDA receptor. The note with it: in vitro.
Series [8] has as its system orofacial pain. The note with it: fixed doses.
In series [9] the test system is experimentally induced ischemic pain.
The conditions of series [10]: 0 to 24 hours postoperatively; bolus 0.5 mg/kg and infusion 0.25 mg/kg/hr.

As to `CNC1(c2ccccc2Cl)CCCCC1=O` (racemic) [ketamine], in series [1], the “mean immediate response (% relief)” value was not above 92%, the “patients with alteration in hepatic enzyme profile” value is “four patients” and the patients with hallucinations result is reported as “six patients”. Besides, the “onset of antidepressant effect after administration” value in series [2] is not above 2 h. The absolute oral bioavailability (humans) is 10-20%. In addition, for the setting “in vivo”, the half-life was 2 to 3 h and the “systemic (primarily hepatic) clearance” value is reported as “about 19 ml/min·kg”. In addition, the “indications of liver toxicity” value in series [3] (39 clinical trials, IV infusion rate less than 1.2 mg/kg/h, bolus less than 1 mg/kg) was “no indications of liver toxicity”. Also, the “reduction of opioid consumption” value in series [3] (low-dose intravenous (IV) ketamine) is recorded as 40%. The “primary change in mean pain scores versus morphine” value in series [4] is “no significant differences”.

Turning to `C[C@]12N[C@H](Cc3ccccc31)c1ccccc12` [MK-801], the effect on analgesia result in series [5] was “anti-analgesic effect”.

With `CN[C@@]1(c2ccccc2Cl)CCCCC1=O` [R-ketamine], in series [6] (animal models), the “psychotomimetic side effects and abuse liability” value is “free of psychotomimetic side effects and abuse liability”. Also, in series [6] (model animal studies), the “antidepressant effectiveness versus S-ketamine” value was “more effective as an antidepressant than S-ketamine”.

As for `CN[C@]1(c2ccccc2Cl)CCCCC1=O` [S-ketamine], the “potency in NMDAR binding relative to R-ketamine” value in [7] is reported as “about 4 times”. For the same compound, in series [8], the “potency relative to racemic ketamine” value is 2 times. Also, the “in vivo potency difference between the two enantiomers” value in series [9] is “about 4 times”. The “mean difference in morphine consumption versus placebo” value in series [10] is 42 mg.

For orientation: half-life means the time needed for the level to fall by half in the phase considered.
